Assay [1] has as its target T1, Tissue factor (Homo sapiens, UniProt P13726). The assay is described as follows: (§1) Inhibition of LPS-induced tissue factor procoagulant activity in human THP1 cells preincubated for 1 hr followed by LPS addition measured after 5 hrs using factor 10a chromogenic substrate in presence of prothrombin complex.
Assay [2] addresses T1, Tissue factor. The assay can be described thus: ChEBML_1654816. The method, then:
as §1

T1 sequence (P13726 whole entry): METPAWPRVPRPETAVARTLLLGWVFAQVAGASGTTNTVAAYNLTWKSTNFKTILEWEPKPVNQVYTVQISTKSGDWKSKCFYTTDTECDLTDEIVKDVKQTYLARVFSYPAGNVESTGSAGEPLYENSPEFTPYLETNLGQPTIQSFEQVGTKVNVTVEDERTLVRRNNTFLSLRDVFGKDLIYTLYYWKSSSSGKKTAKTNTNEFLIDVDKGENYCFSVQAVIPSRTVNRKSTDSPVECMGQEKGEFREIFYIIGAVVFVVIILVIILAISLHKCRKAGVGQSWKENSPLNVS

Regarding `CC1(C)CC[C@]2(C(=O)O[C@@H]3O[C@H](CO)[C@@H](O)[C@H](O)[C@H]3O)[C@H](O)C[C@]3(C)C(=CC[C@@H]4[C@@]5(C)CC[C@H](O)C(C)(C)[C@@H]5CC[C@]43C)[C@@H]2C1`, on Tissue factor [1], the 50% inhibitory concentration (IC50) (usually the point on the concentration scale where inhibition reaches its midpoint) was 11 nM. Still for that read-out and setting: under `CC1(C)CC[C@]2(C(=O)OCc3ccccc3)CC[C@]3(C)C(=CC[C@@H]4[C@@]5(C)CC[C@H](O)C(C)(C)[C@@H]5CC[C@]43C)[C@@H]2C1` [benzyl (4aS,6aS,6bR,8aR,10S,12aR,12bR,14bS)-10-hydroxy-2,2,6a,6b,9,9,12a-heptamethyl-1,3,4,5,6,7,8,8a,10,11,12,12b,13,14b-tetradecahydropicene-4a-carboxylate (Compound 4)] stands 4.7 nM.

For `CC1(C)CC[C@]2(C(=O)O[C@@H]3O[C@H](CO)[C@@H](O)[C@H](O)[C@H]3O)[C@H](O)C[C@]3(C)C(=CC[C@@H]4[C@@]5(C)CC[C@H](O)[C@](C)(CO)[C@@H]5CC[C@]43C)[C@@H]2C1`, inhibition against Tissue factor [2] was half-maximal at 0.801 nM (IC50). On the same count and under the same terms, for `CC1(C)CC[C@]2(C(=O)O)[C@H](O)C[C@]3(C)C(=CC[C@@H]4[C@@]5(C)CC[C@H](O)C(C)(C)[C@@H]5CC[C@]43C)[C@@H]2C1` [CHEBI:4747] the value was 0.054 nM; for `COc1cc(/C=C/C(=O)CC(=O)/C=C/c2ccc(O)c(OC)c2)ccc1O` [CHEBI:3962], 13 nM. For the molecule `CC1(C)CC[C@]2(C(=O)O)CC[C@]3(C)C(=CC[C@@H]4[C@@]5(C)CC[C@H](O)C(C)(C)[C@@H]5CC[C@]43C)[C@@H]2C1` [Oleanolic acid (OA)(Compound 1)], the IC50 at Tissue factor [1] worked out at 5 nM. Regarding `CC1(C)CC[C@]2(C(=O)O)CC[C@]3(C)C(=CC[C@@H]4[C@@]5(C)CCC(=O)C(C)(C)[C@@H]5CC[C@]43C)[C@@H]2C1` [Oleanonic Acid], at Tissue factor [1], the IC50 is 0.221 nM. With `CC1(C)CC[C@]2(C(=O)O)CC[C@]3(C)C(=CC[C@@H]4[C@@]5(C)CC[C@H](O)[C@@](C)(CO)[C@@H]5CC[C@]43C)[C@@H]2C1` [4-Epi-Hederagenin], the IC50 on Tissue factor [1] was found to be 0.221 nM. Same read-out and setting: under `C=C(C)[C@@H]1CC[C@]2(C(=O)O[C@@H]3O[C@H](CO)[C@@H](O)[C@H](O)[C@H]3O)CC[C@]3(C)C(CC[C@@H]4[C@@]5(C)CC[C@H](O)[C@@](C)(CO)[C@@H]5CC[C@]43C)[C@H]12` (some centres undefined) stands 0.028 nM.

In the case of `C=C(C)[C@@H]1CC[C@]2(C(=O)O[C@@H]3O[C@H](CO)[C@@H](O)[C@H](O)[C@H]3O)CC[C@]3(C)C(CC[C@@H]4[C@@]5(C)CC[C@H](O[C@@H]6O[C@H](CO)[C@@H](O)[C@H](O)[C@H]6O)C(C)(C)[C@@H]5CC[C@]43C)[C@H]12` (some centres undefined), the IC50 on Tissue factor [2] was found to be 0.64 nM. Turning to `CC1(C)CC[C@]2(C(=O)O[C@@H]3O[C@H](CO)[C@@H](O)[C@H](O)[C@H]3O)CC[C@]3(C)C(=CC[C@@H]4[C@@]5(C)CC[C@H](O[C@@H]6O[C@H](CO)[C@@H](O)[C@H](O)[C@H]6O)C(C)(C)[C@@H]5CC[C@]43C)[C@@H]2C1`, the IC50 on Tissue factor [1] stood at 16 nM. In turn, `CC1(C)CC[C@]2(C(=O)O)CC[C@]3(C)C(=CC[C@@H]4[C@@]5(C)CC[C@H](O[C@@H]6O[C@H](CO)[C@@H](O)[C@H](O)[C@H]6O)C(C)(C)[C@@H]5CC[C@]43C)[C@@H]2C1` [Vitalboside A] showed an IC50 at Tissue factor [2] of 0.095 nM. Take `CC1(C)CC[C@]2(C(=O)O[C@@H]3O[C@H](CO)[C@@H](O)[C@H](O)[C@H]3O)[C@H](O)C[C@]3(C)C(=CC[C@@H]4[C@@]5(C)CC[C@H](O[C@@H]6O[C@H](CO)[C@@H](O)[C@H](O)[C@H]6O)C(C)(C)[C@@H]5CC[C@]43C)[C@@H]2C1`: the IC50 at Tissue factor [1] came out at 9.6 nM. Still for that read-out and setting: under `C=C(C)[C@@H]1CC[C@]2(C(=O)O[C@@H]3O[C@H](CO)[C@@H](O)[C@H](O)[C@H]3O)CC[C@]3(C)C(CC[C@@H]4[C@@]5(C)CC[C@H](O)C(C)(C)[C@@H]5CC[C@]43C)[C@H]12` (some centres undefined) stands 0.078 nM.

`CC1(C)CC[C@]2(C(=O)O[C@@H]3O[C@H](CO)[C@@H](O)[C@H](O)[C@H]3O)CC[C@]3(C)C(=CC[C@@H]4[C@@]5(C)CC[C@H](O)[C@@](C)(CO)[C@@H]5CC[C@]43C)[C@@H]2C1` [CHEBI:67947] had an IC50 at Tissue factor [2] of 0.28 nM.

Take `C=C(C)[C@@H]1CC[C@]2(C(=O)O)CC[C@]3(C)C(CC[C@@H]4[C@@]5(C)CC[C@H](O)[C@@](C)(CO)[C@@H]5CC[C@]43C)[C@H]12` (some centres undefined): the IC50 at Tissue factor [1] was found to be 0.221 nM. As for `CC1(C)CC[C@]2(C(=O)O[C@@H]3O[C@H](CO)[C@@H](O)[C@H](O)[C@H]3O)CC[C@]3(C)C(=CC[C@@H]4[C@@]5(C)CC[C@H](O)C(C)(C)[C@@H]5CC[C@]43C)[C@@H]2C1` [CHEBI:67985], the half-maximal inhibitory concentration (IC50) at Tissue factor [1] amounted to 0.035 nM. Same read-out and setting: under `CC1(C)CC[C@]2(C(=O)O[C@@H]3O[C@H](CO)[C@@H](O)[C@H](O)[C@H]3O)CC[C@]3(C)C(=CC[C@@H]4[C@@]5(C)CC[C@H](O)[C@](C)(CO)[C@@H]5CC[C@]43C)[C@@H]2C1` stands 6.5 nM; under `CC1(C)CC[C@]2(C(=O)O)CC[C@]3(C)C(=CC[C@@H]4[C@@]5(C)CC[C@H](O)[C@](C)(CO)[C@@H]5CC[C@]43C)[C@@H]2C1`, 1.3 nM.

For the origin of these results see BindingDB's records for doi:10.1016/j.bmcl.2016.12.066 (China Pharmaceutical University, 2017).
